Paper PMC7044277 (Nature Communications, 2020)
“And” between values parts separate entries of the source, which are not always exact repeats. Equal values may be shown once.

How the values were obtained:
Format in all cases: cell-based
320 non-olfactory GPCRs [1] = molecular target: 320 non-olfactory GPCRs (Homo sapiens, UniProt P07550)
320 non-olfactory GPCRs [2] = molecular target: T1, 320 non-olfactory GPCRs (Homo sapiens, UniProt Q8TDV5)
T1 construct: expressed in transfected cells; host or cells: HTLA cells
T1 sequence (Q8TDV5 whole entry): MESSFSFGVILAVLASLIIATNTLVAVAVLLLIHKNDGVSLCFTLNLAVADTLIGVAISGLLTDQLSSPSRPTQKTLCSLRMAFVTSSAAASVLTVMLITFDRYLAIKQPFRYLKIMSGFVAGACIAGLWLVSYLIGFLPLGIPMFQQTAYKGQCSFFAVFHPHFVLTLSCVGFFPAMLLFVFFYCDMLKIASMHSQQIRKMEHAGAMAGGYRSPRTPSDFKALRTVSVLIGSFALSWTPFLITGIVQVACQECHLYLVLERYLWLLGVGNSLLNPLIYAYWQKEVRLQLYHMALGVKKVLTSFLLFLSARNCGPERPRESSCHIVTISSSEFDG

320 non-olfactory GPCRs [3] = molecular target: T2, 320 non-olfactory GPCRs (Homo sapiens, UniProt P47901)
T2 construct: expressed in transfected cells; host or cells: HTLA cells
T2 sequence (P47901 whole entry): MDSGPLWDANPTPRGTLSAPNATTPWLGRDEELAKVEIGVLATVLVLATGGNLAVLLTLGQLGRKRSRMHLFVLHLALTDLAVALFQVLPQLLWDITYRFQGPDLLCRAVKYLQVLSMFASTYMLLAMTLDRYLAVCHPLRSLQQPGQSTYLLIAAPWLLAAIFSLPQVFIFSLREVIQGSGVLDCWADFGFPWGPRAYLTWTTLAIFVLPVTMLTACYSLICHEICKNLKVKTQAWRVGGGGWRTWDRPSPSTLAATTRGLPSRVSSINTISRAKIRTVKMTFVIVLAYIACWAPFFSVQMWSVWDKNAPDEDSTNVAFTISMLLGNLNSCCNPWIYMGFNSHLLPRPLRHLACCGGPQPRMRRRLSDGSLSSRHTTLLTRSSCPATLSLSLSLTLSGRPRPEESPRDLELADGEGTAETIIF

320 non-olfactory GPCRs [4] = molecular target: T3, 320 non-olfactory GPCRs (Homo sapiens, UniProt P43088); settings: receptor PTGFR; replicate values, Fig_4g
T3 construct: expressed in transfected cells; host or cells: HTLA cells
T3 sequence (P43088 whole entry): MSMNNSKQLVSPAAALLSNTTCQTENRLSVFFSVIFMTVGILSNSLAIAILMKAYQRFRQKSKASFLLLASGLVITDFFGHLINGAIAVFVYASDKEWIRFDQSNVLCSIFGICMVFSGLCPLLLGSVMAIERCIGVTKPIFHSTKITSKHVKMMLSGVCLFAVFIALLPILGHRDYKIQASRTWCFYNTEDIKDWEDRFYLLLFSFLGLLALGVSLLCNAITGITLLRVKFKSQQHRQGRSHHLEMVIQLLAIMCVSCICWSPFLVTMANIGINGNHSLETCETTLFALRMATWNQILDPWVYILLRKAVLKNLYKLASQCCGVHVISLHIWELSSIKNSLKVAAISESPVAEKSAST
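For Fold of Basal in this document: compound tested at 1 µM final concentration.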
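For GPCRome agonism screen response in this document: fold over basal response of each receptor without drug.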

320 non-olfactory GPCRs (Homo sapiens, UniProt P07550), sequence (P07550 whole entry): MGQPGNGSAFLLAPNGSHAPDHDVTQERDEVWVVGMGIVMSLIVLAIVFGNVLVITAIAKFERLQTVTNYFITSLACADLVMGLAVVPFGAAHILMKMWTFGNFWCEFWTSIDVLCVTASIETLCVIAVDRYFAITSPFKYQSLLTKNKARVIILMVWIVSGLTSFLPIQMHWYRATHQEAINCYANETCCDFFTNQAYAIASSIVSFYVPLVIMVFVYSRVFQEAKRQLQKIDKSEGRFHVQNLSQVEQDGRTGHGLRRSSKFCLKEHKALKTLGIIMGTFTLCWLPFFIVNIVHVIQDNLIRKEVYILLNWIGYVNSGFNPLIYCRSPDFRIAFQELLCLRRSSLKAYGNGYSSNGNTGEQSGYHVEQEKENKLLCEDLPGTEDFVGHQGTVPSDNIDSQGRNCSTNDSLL

With `CCOc1cccc2cc(C(C)NCC3(O)CCCCC3)oc12` (stereo not shown) [O4LE6] the “Fold of Basal” value (320 non-olfactory GPCRs [1]) was 0.7944 and 1.208 and 1.018 and 0.6397, the “Fold of Basal” value (320 non-olfactory GPCRs [2]) was 0.5971 and 0.6704 and 0.4797 and 0.8296 and the “Fold of Basal” value (320 non-olfactory GPCRs [3]) was 1.0215 and 1.01 and 1.094 and 0.8472. The “GPCRome agonism screen response” value (320 non-olfactory GPCRs [4]) was 0.453 and 1.129 and 0.3537 and 0.6778.
